A word on the EC50: it is the midpoint of the concentration-response curve.

For this assay, the system named is HCV 1b-377-neo replicon cells. Nature of the assay: HCV replicon assay, wild-type cells. The note with it: Hepatitis C virus, against the HCV 1b genotype, read-out: EC50 Range. The assay is classed as cell-based. The method, then:
An HCV Replion assay was utilized in the present disclosure, and was prepared, conducted and validated as described in commonly owned PCT/US2006/022197 and in O'Boyle et al. Antimicrob Agents Chemother. 2005 Apr;49(4):1346-53.
HCV 1b-377-neo replicon cells were used to test the currently described compound series as well as cells resistant to compound A due to a Y2065H mutation in NS5A (described in application PCT/US2006/022197). The compounds tested were determined to have more than 10-fold less inhibitory activity on cells resistant to compound A than wild-type cells indicating a related mechanism of action between the two compound series. Thus, the compounds of the present disclosure can be effective to inhibit the function of the HCV NS5A protein and are understood to be as effective in combinations as previously described in application PCT/US2006/022197 and commonly owned WO/04014852. Further, the compounds of the present disclosure can be effective against the HCV 1b genotype. It should also be understood that the compounds of the present disclosure can inhibit multiple genotypes of HCV. […] In one embodiment compounds of the present disclosure are active against the 1a, 1b, 2a, 2b, 3a, 4a, and 5a genotypes.

As to `COCC[C@H](NC(=O)OC)C(=O)N[C@H](c1nc(-c2ccc(-c3ccc(-c4c[nH]c([C@@H]5CCCN5C(=O)[C@H](CCOC)NC(=O)OC)n4)cc3)cc2)c[nH]1)C(C)C` [Example R20, methyl ((1S)-3-methoxy-1-(((2S)-2-(4-(4'-(2-((1S)-1-((N-(methoxycarbonyl)-O-methyl-L-homoseryl)amino)-2-methylpropyl)-1H-imidazol-4-yl)-4-biphenylyl)-1H-imidazol-2-yl)-1-pyrrolidinyl)carbonyl)propyl)carbamate], the EC50 lay in the range of 0.001 to 0.999 nM. Next, `COC(=O)N[C@H](C(=O)Nc1ncc(-c2ccc(-c3ccc(-c4cnc([C@@H]5CCCN5C(=O)[C@@H](NC(=O)OC)C(C)C)[nH]4)cc3)cc2)[nH]1)C(C)C` [Example R33, (S)-2-methoxycarbonylamino-N-(5-(4'-(2-((S)-1-((S)-2-methoxycarbonylamino-3-methylbutanoyl)pyrrolidin-2-yl)-1H-imidazol-5-yl)biphenyl-4-yl)-1H-imidazol-2-yl)-3-methylbutanamide]: 1 to 99 nM.

Source of the values: EP2250163B1, “HEPATITIS C VIRUS INHIBITORS” (Bristol-Myers Squibb Company, priority 2008, dated 2009).
